Laboratory results published in PubChem BioAssay (NCI).
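Following 48 hours of exposure in 96-well plates, responses at five concentrations were used to interpolate endpoints linearly. GI50 marks 50% less growth. TGI: total growth inhibition.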

How the values were obtained:
Assay in all cases: NCI-60 cell line screen, 48 h
[1] = system: HT29 colon
[2] = system: TK-10 renal
[3] = system: COLO 205 colon
[4] = system: MOLT-4 leukemia
[5] = system: RXF 393 renal
[6] = system: SR leukemia
[7] = system: LOX IMVI melanoma
[8] = system: U251 CNS
[9] = system: HS 578T breast
[10] = system: SNB-75 CNS

`C=C(C)C(=O)O[C@H]1[C@H]2[C@H](OC(=O)[C@H]2C)[C@H](O)[C@@H](C)[C@@H]2C=CC(=O)[C@]21C` showed a TGI [1] of 10.7 µM, a TGI [2] of 8.09 µM and a TGI [3] of 9.97 µM. It also gave a TGI [4] of 7.52 µM, a TGI [5] of 4.13 µM and a TGI [6] of 5.39 µM. It also gave a TGI [7] of 7.74 µM, a TGI [8] of 12.1 µM and a TGI [9] of 32.5 µM.

With `O=C(CCl)N1c2ccccc2Sc2c1ccc1ccccc21` the GI50 [1] was 3.58 µM, the TGI [1] was 15.5 µM and the GI50 [2] was 3.86 µM. It also gave a TGI [2] of 11.5 µM, a GI50 [3] of 1.87 µM and a TGI [3] of 4.06 µM. For the same molecule, the GI50 [4] was 2.49 µM, the TGI [4] was > 100 µM and the GI50 [5] was 1.85 µM. For the same molecule, the TGI [5] was 3.43 µM, the GI50 [6] was 2.4 µM and the TGI [6] was 9.55 µM. The GI50 [7] was 1.12 µM, the TGI [7] was 2.42 µM and the GI50 [10] was 2.45 µM. It also gave a TGI [10] of 7.78 µM, a GI50 [8] of 1.65 µM and a TGI [8] of 3.13 µM. It also gave a GI50 [9] of 4.17 µM and a TGI [9] of 43.9 µM.

With `CO/N=C(\C)c1ccc(Nc2cc(-c3ccccc3)nc3c(O)cccc23)cc1` the GI50 [1] was 21.9 µM, the TGI [1] was 49.5 µM and the GI50 [3] was 17.2 µM. The TGI [3] was 34.5 µM, the GI50 [5] was 14.2 µM and the TGI [5] was 30 µM. The GI50 [6] was 5.51 µM, the TGI [6] was 34.7 µM and the GI50 [7] was 14.3 µM. For the same molecule, the TGI [7] was 27.9 µM, the GI50 [10] was 22.1 µM and the TGI [10] was 46.1 µM. The GI50 [8] was 13.3 µM, the TGI [8] was 27.2 µM and the GI50 [9] was 18.2 µM. The TGI [9] was 46.1 µM.

`CC(C)NC(=O)OCCS(=O)c1c(Cl)c(Cl)nn1C` (configuration not stated) was tested, and the TGI [1] was > 100 µM, the TGI [2] was > 100 µM and the TGI [3] was 44 µM. For the same molecule, the TGI [4] was > 100 µM, the TGI [6] was > 100 µM and the TGI [7] was > 100 µM. For the same molecule, the TGI [10] was > 100 µM, the TGI [8] was > 100 µM and the TGI [9] was > 100 µM.

Molecule `C[C@H]1[C@H](C)CC[C@]2(C(=O)O)CC[C@]3(C)C(=CC[C@@H]4[C@@]5(C)C/C(=C/c6cccnc6)[C@H](O)C(C)(C)[C@@H]5CC[C@]43C)[C@H]12` has a GI50 [1] of 14.4 µM, a TGI [1] of 33.9 µM and a GI50 [2] of 28.4 µM. The TGI [2] was > 100 µM, the GI50 [3] was 14.6 µM and the TGI [3] was 32.4 µM. It also gave a GI50 [4] of 8.74 µM, a TGI [4] of 58.2 µM and a GI50 [5] of 13.7 µM. For the same molecule, the TGI [5] was 36.6 µM, the GI50 [6] was 20.7 µM and the TGI [6] was 82.8 µM. It also gave a GI50 [7] of 13.4 µM, a TGI [7] of 28.1 µM and a GI50 [10] of 28.6 µM. The TGI [10] was > 100 µM, the GI50 [8] was 10.9 µM and the TGI [8] was 27.8 µM. For the same molecule, the GI50 [9] was 28.8 µM and the TGI [9] was > 100 µM.

Molecule `COc1cc(Nc2nc(N[C@H]3CCCC[C@@H]3N)nc3cc[nH]c(=O)c23)cc(OC)c1` has a GI50 [1] of 0.391 µM, a TGI [1] of 3.69 µM and a GI50 [2] of 1.84 µM. For the same molecule, the TGI [2] was 19.3 µM, the GI50 [3] was 1.04 µM and the TGI [3] was 2.49 µM. For the same molecule, the GI50 [4] was 1.19 µM, the TGI [4] was 11.4 µM and the GI50 [5] was 0.403 µM. It also gave a TGI [5] of 2.76 µM, a GI50 [6] of 0.8 µM and a TGI [6] of 3.91 µM. The GI50 [7] was 0.468 µM, the TGI [7] was 1.77 µM and the GI50 [10] was 3.27 µM. For the same molecule, the TGI [10] was 17.3 µM, the GI50 [8] was 1.46 µM and the TGI [8] was 5.31 µM. The GI50 [9] was 1.14 µM and the TGI [9] was 15.2 µM.

`COc1c(N2CCN(CN3C(=O)C(=Nc4ccc(S(=O)(=O)Nc5ncccn5)cc4)c4ccccc43)C(C)C2)c(F)cc2c(=O)c(C(=O)O)cn(C3CC3)c12` (configuration not stated) was tested, and the GI50 [1] was 22.3 µM, the TGI [1] was > 50 µM and the GI50 [2] was 11.9 µM. The TGI [2] was 43.7 µM, the GI50 [3] was 0.269 µM and the TGI [3] was > 50 µM. The GI50 [4] was 17 µM, the TGI [4] was > 50 µM and the GI50 [5] was 42.4 µM. The TGI [5] was > 50 µM, the GI50 [6] was 12.5 µM and the TGI [6] was > 50 µM. For the same molecule, the GI50 [7] was 27.5 µM, the TGI [7] was > 50 µM and the GI50 [10] was 7.71 µM. For the same molecule, the TGI [10] was > 50 µM, the GI50 [8] was > 50 µM and the TGI [8] was > 50 µM. The GI50 [9] was > 50 µM and the TGI [9] was > 50 µM.

Molecule `CCCCN(Cc1ccc(F)cc1)c1ccc(CO)c(Cl)c1` has a GI50 [1] of 13.7 µM, a TGI [1] of 29.1 µM and a GI50 [2] of 0.319 µM. For the same molecule, the TGI [2] was 1.89 µM, the GI50 [3] was 14 µM and the TGI [3] was 27.2 µM. For the same molecule, the GI50 [4] was 17.8 µM, the TGI [4] was 43.1 µM and the GI50 [5] was 7.16 µM. The TGI [5] was 21.1 µM, the GI50 [6] was 14.6 µM and the TGI [6] was 34.7 µM. It also gave a GI50 [7] of 16.3 µM, a TGI [7] of 31.5 µM and a GI50 [10] of 13.1 µM. The TGI [10] was 26.1 µM, the GI50 [8] was 4.57 µM and the TGI [8] was 18.9 µM. For the same molecule, the GI50 [9] was 17.7 µM and the TGI [9] was 40.9 µM.

`CC(=O)O[C@@H]1CC2C(C)(C)CCCC2(C)C2=C1C(=O)C(C(C)C)=CC2=O` (some centres not stated) was tested, and the GI50 [1] was 2.03 µM, the TGI [1] was 5.54 µM and the GI50 [2] was 2.51 µM. For the same molecule, the TGI [2] was > 100 µM, the GI50 [3] was 1.88 µM and the TGI [3] was 4.11 µM. For the same molecule, the GI50 [4] was 1.13 µM, the TGI [4] was > 100 µM and the GI50 [5] was 0.757 µM. For the same molecule, the TGI [5] was 2.27 µM, the GI50 [6] was 0.653 µM and the TGI [6] was > 100 µM. For the same molecule, the GI50 [7] was 1.59 µM, the TGI [7] was 3.48 µM and the GI50 [8] was 2.35 µM. For the same molecule, the TGI [8] was > 100 µM, the GI50 [9] was 1.79 µM and the TGI [9] was > 100 µM.

Work on `Oc1ccc(CCCCCCc2ccc(O)cc2)cc1` yielded a GI50 [1] of 17 µM, a TGI [1] of 34.5 µM and a GI50 [2] of 19.7 µM. For the same molecule, the TGI [2] was > 57.3 µM, the GI50 [3] was 15.2 µM and the TGI [3] was 29.4 µM. The GI50 [4] was 0.566 µM, the TGI [4] was 27.9 µM and the GI50 [5] was 8.03 µM. The TGI [5] was 21.5 µM, the GI50 [6] was 6.15 µM and the TGI [6] was > 100 µM. It also gave a GI50 [7] of 1.5 µM, a TGI [7] of 17.9 µM and a GI50 [10] of 11.6 µM. For the same molecule, the TGI [10] was 35.3 µM, the GI50 [8] was 5.61 µM and the TGI [8] was 19.8 µM. It also gave a GI50 [9] of 13.3 µM and a TGI [9] of 37.4 µM.

With `CC1OC2CC(=O)OC2C2=C1C(=O)c1c(O)c3c(c(O)c1C2=O)C1CC(O)C3(O)C(C)O1` (configuration not stated) the GI50 [1] was 0.229 µM, the TGI [1] was 1.14 µM and the GI50 [2] was 0.302 µM. It also gave a TGI [2] of 1.12 µM, a GI50 [3] of 0.186 µM and a TGI [3] of 0.453 µM. It also gave a GI50 [4] of 0.244 µM, a TGI [4] of 0.64 µM and a GI50 [5] of 1.2 µM. It also gave a TGI [5] of 2.51 µM, a GI50 [6] of 0.344 µM and a TGI [6] of 5.86 µM. It also gave a GI50 [7] of 0.104 µM, a TGI [7] of 0.476 µM and a GI50 [10] of 1.59 µM. For the same molecule, the TGI [10] was 3.64 µM, the GI50 [8] was 0.296 µM and the TGI [8] was 1.07 µM. For the same molecule, the GI50 [9] was 0.429 µM and the TGI [9] was 2.92 µM.

In the case of `CC[C@H](CC#N)OC(=O)N[C@@H](C)c1cccc(NC(=O)Nc2ccc(-c3cnco3)c(OC)c2)c1`, the GI50 [1] is reported as < 0.0199 µM, the TGI [1] is reported as 21.7 µM and the GI50 [2] is reported as 0.171 µM. It also gave a TGI [2] of 28.3 µM, a GI50 [3] of 0.0203 µM and a TGI [3] of 18 µM. For the same molecule, the GI50 [4] was 0.0403 µM, the TGI [4] was 13.8 µM and the GI50 [5] was 0.266 µM. The TGI [5] was > 22.9 µM, the GI50 [6] was 0.0289 µM and the TGI [6] was 4.3 µM. It also gave a GI50 [7] of 0.0242 µM, a TGI [7] of 24.8 µM and a GI50 [10] of 0.11 µM. For the same molecule, the TGI [10] was 27.8 µM, the GI50 [8] was 0.0406 µM and the TGI [8] was 44.8 µM. For the same molecule, the GI50 [9] was 1.16 µM and the TGI [9] was > 51.6 µM.

`O=C1C(Cl)=C(Nc2cccc(O)c2)C(=O)N1c1cc(Cl)c(Cl)cc1Cl` was tested, and the GI50 [1] was 18 µM, the TGI [1] was 40 µM and the GI50 [2] was 23.8 µM. For the same molecule, the TGI [2] was 48.6 µM, the GI50 [3] was 18 µM and the TGI [3] was 38 µM. The GI50 [4] was 12.7 µM, the TGI [4] was 37.2 µM and the GI50 [5] was 14.9 µM. It also gave a TGI [5] of 30.6 µM, a GI50 [6] of 10.3 µM and a TGI [6] of 59.7 µM. For the same molecule, the GI50 [7] was 13 µM, the TGI [7] was 28 µM and the GI50 [10] was 16.4 µM. For the same molecule, the TGI [10] was 31.3 µM, the GI50 [8] was 13.7 µM and the TGI [8] was 27.3 µM. It also gave a GI50 [9] of 17.6 µM and a TGI [9] of 39.4 µM.
